From patent US9884056B2, “Oral pharmaceutical dosage forms” (Durect Corporation, priority 2008, dated 2018)

Assays:
[1] = after an IV dose, PET; cited from earlier work
[2] = In vitro volatilization test; type: physicochemical; conditions: 40 mg in petri dish on hot plate
Description: In order to further assess the abuse-resistance performance of abuse-resistant dosage forms produced according to the present invention, the following in vitro volatilization test was developed. In particular, intentional abuse of controlled release pharmaceutical dosage forms may alternatively be carried out by volatilization (smoking, or free-basing) techniques that can liberate active agent (in immediately active form) from commercially available controlled release carrier systems. Accordingly, a preliminary in vitro volatilization test was developed in order to assess: (1) whether a free base form of an active agent (in this case, oxycodone) was more volatile than the salt (HCl) form; and (2) whether abuse-resistant dosage forms produced according to the instant invention can prevent inhalation abuse through volatilization.
Each petri dish was fitted with a watch glass as a cover, and the covered test dishes were placed on a hot plate (setting 10). After 30 seconds each watch glass was replaced with a fresh watch glass, and this step was repeated three times (to obtain 4 time points). Any residue deposited on the bottom side of the test watch glasses was carefully transferred with an Alpha Swab (TX 761) into 40/60 ethanol/0.005M HCl solution, and the concentration of oxycodone solution was determined by HPLC. The observations taken during the test were as follows. […]

[3] = cited from earlier work

COC(=O)C(c1ccccc1)C1CCCCN1 (centres unmarked) [^11C-labeled methylphenidate]
brain clearance half life [1]: 1.5 h | brain uptake Tmax [1]: < 0.167 h

COc1ccc2c3c1O[C@H]1C(=O)CC[C@@]4(O)[C@@H](C2)N(C)CC[C@]314.Cl [oxycodone HCl]
observation upon heating in volatilization test [2]: extensive degradation and charring

COC(=O)C(c1ccccc1)C1CCCCN1 (racemic) [methylphenidate, dl-threo-methyl-2-phenyl-2-(2-piperidyl) acetate]
dose deesterified to the inactive major metabolite, ritalinic acid ([3]; excreted in the urine): About 70% | Tmax following oral administration (mean) ([3]; immediate release, oral): 1.5 h | d-threo to l-threo plasma concentration ratio ([3]; in vivo): ~10:1 | systemic half-life ([3]; in vivo): approximately 3 hours

COc1ccc2c3c1O[C@H]1C(=O)CC[C@@]4(O)[C@@H](C2)N(C)CC[C@]314 [oxycodone free base form, oxycodone]
observation upon heating in volatilization test [2]: vaporizes/sublimes upon heating
